These results are taken from patent US4912107A, “Pyrrolocarbazole derivatives, compositions containing them, and methods for using them” (Goedecke Aktiengesellschaft, priority 1988, dated 1990).

pIC50: −log10 of the molar value.

The target in this experiment is protein kinase C. Description: enzyme assay of protein kinase C activated with phosphatidylserine and diacylglycerol. Format: biochemical. The note with it: protein kinase C activated with phosphatidylserine and iacylglycerol; according to EP-OS 0 255 126; read-out: concentration giving 50% inhibition of protein kinase C. The procedure: Compounds of the present invention are potent inhibitors of protein kinases, such as protein kinase C. […] The experiment was carried out according to EP-OS 0 255 126 (inhibition of protein kinase C).

With `CCn1c2ccccc2c2c3c(c(-c4ccccc4Cl)cc21)C(=O)NC3=O` [Example 2a, 4-(2-Chlorophenyl)-6-ethyl-1,2,3,6-tetrahydro-1,3-dioxopyrrolo[3,4-c]carbazole], the pIC50 is 6.24.
